Laboratory results reported in the NIST ThermoML archive (doi:10.1016/j.fluid.2013.10.029).

Tests used:
[1] = excess molar enthalpy (molar enthalpy of mixing); xn = mol fraction of the nth substance listed; conditions: 298.15 K, 101 kPa, Liquid, isothermal titration calorimeter
[2] = xn = mol fraction of the nth substance listed; conditions: 101.33 kPa, Liquid, Vibrating tube method

c1cc[nH]c1 [pyrrole] + c1ccccc1
[1]
Conditions | excess molar enthalpy [kJ/mol]
x1 = 0.015 | 0.0713
x1 = 0.03 | 0.123
x1 = 0.0448 | 0.17
x1 = 0.0597 | 0.213
x1 = 0.0747 | 0.253
x1 = 0.0896 | 0.289
x1 = 0.1045 | 0.323
x1 = 0.1193 | 0.354
x1 = 0.1343 | 0.384
x1 = 0.1493 | 0.411
x1 = 0.1642 | 0.435
x1 = 0.1792 | 0.458
x1 = 0.1942 | 0.479
x1 = 0.2092 | 0.499
x1 = 0.2242 | 0.517
x1 = 0.2392 | 0.533
x1 = 0.2542 | 0.547
x1 = 0.2691 | 0.56
x1 = 0.284 | 0.571
x1 = 0.299 | 0.581
x1 = 0.314 | 0.589
x1 = 0.329 | 0.597
x1 = 0.344 | 0.603
x1 = 0.359 | 0.608
x1 = 0.374 | 0.613
x1 = 0.389 | 0.616
x1 = 0.404 | 0.618
x1 = 0.419 | 0.619
x1 = 0.434 | 0.619
x1 = 0.449 | 0.618
x1 = 0.464 | 0.616
x1 = 0.479 | 0.613
x1 = 0.494 | 0.609
x1 = 0.5091 | 0.604
x1 = 0.5241 | 0.599
x1 = 0.5391 | 0.592
x1 = 0.5541 | 0.585
x1 = 0.5613 | 0.584
x1 = 0.5683 | 0.581
x1 = 0.5692 | 0.577
x1 = 0.583 | 0.574
x1 = 0.5842 | 0.567
x1 = 0.5977 | 0.567
x1 = 0.5993 | 0.557
x1 = 0.6122 | 0.558
x1 = 0.6143 | 0.547
x1 = 0.6267 | 0.549
x1 = 0.6411 | 0.539
x1 = 0.6554 | 0.528
x1 = 0.6696 | 0.517
x1 = 0.6838 | 0.505
x1 = 0.6978 | 0.492
x1 = 0.7118 | 0.479
x1 = 0.7257 | 0.464
x1 = 0.7395 | 0.449
x1 = 0.7533 | 0.433
x1 = 0.7669 | 0.417
x1 = 0.7805 | 0.4
x1 = 0.794 | 0.382
x1 = 0.8074 | 0.363
x1 = 0.8208 | 0.344
x1 = 0.8341 | 0.324
x1 = 0.8473 | 0.304
x1 = 0.8604 | 0.282
x1 = 0.8735 | 0.26
x1 = 0.8865 | 0.237
x1 = 0.8993 | 0.214
x1 = 0.9121 | 0.189
x1 = 0.9249 | 0.164
x1 = 0.9377 | 0.138
x1 = 0.9502 | 0.113
x1 = 0.9628 | 0.0851
x1 = 0.9753 | 0.0578
x1 = 0.9877 | 0.0292

c1cc[nH]c1 [pyrrole] + c1ccncc1
mass density [kg/m3], [2]
Conditions | 298.15 K | 308.15 K | 318.15 K | 328.15 K | 338.15 K
x1 = 0.0735 | 977.37 | 967.47 | 957.53 | 947.53 | 937.46
x1 = 0.1006 | 977.04 | 967.22 | 957.34 | 947.41 | 937.4
x1 = 0.1428 | 976.57 | 966.85 | 957.07 | 947.23 | 937.32
x1 = 0.1978 | 975.9 | 966.3 | 956.66 | 946.95 | 937.15
x1 = 0.2273 | 975.56 | 966.03 | 956.45 | 946.8 | 937.07
x1 = 0.3021 | 974.44 | 965.06 | 955.63 | 946.12 | 936.52
x1 = 0.3704 | 973.5 | 964.22 | 954.89 | 945.49 | 936.01
x1 = 0.4409 | 972.25 | 963.08 | 953.85 | 944.54 | 935.14
x1 = 0.5426 | 970.64 | 961.59 | 952.47 | 943.27 | 933.99
x1 = 0.6168 | 969.44 | 960.46 | 951.41 | 942.28 | 933.06
x1 = 0.682 | 968.6 | 959.68 | 950.68 | 941.6 | 932.43
x1 = 0.7554 | 967.69 | 958.82 | 949.87 | 940.85 | 931.72
x1 = 0.8374 | 966.69 | 957.88 | 948.98 | 939.99 | 930.91
x1 = 0.9063 | 966.15 | 957.38 | 948.53 | 939.58 | 930.54
x1 = 0.9591 | 965.77 | 957.04 | 948.21 | 939.3 | 930.28
x1 = 1 | 965.54 | 956.83 | 948.03 | 939.14 | 930.13

[1]
Conditions | excess molar enthalpy [kJ/mol]
x1 = 0.03 | -0.195
x1 = 0.06 | -0.444
x1 = 0.0898 | -0.685
x1 = 0.1197 | -0.919
x1 = 0.1497 | -1.15
x1 = 0.1797 | -1.36
x1 = 0.2096 | -1.57
x1 = 0.2395 | -1.77
x1 = 0.2695 | -1.95
x1 = 0.2994 | -2.11
x1 = 0.3295 | -2.26
x1 = 0.3594 | -2.39
x1 = 0.3895 | -2.5
x1 = 0.4195 | -2.58
x1 = 0.4495 | -2.63
x1 = 0.4795 | -2.65
x1 = 0.4832 | -2.66
x1 = 0.4902 | -2.66
x1 = 0.5095 | -2.65
x1 = 0.5202 | -2.65
x1 = 0.5396 | -2.61
x1 = 0.5502 | -2.6
x1 = 0.5696 | -2.55
x1 = 0.5802 | -2.53
x1 = 0.5906 | -2.49
x1 = 0.6102 | -2.43
x1 = 0.6402 | -2.31
x1 = 0.6702 | -2.16
x1 = 0.7002 | -2
x1 = 0.7302 | -1.83
x1 = 0.7602 | -1.65
x1 = 0.7901 | -1.45
x1 = 0.8201 | -1.25
x1 = 0.8501 | -1.04
x1 = 0.8801 | -0.829
x1 = 0.9101 | -0.615
x1 = 0.9401 | -0.399
x1 = 0.9701 | -0.181
